From patent publication US9242929B2, “Compounds as diacylglycerol acyltransferase inhibitors” (GlaxoSmithKline Intellectual Property (No.2) Limited, priority 2011, dated 2016)

Target: T1, Human DGAT1 (Homo sapiens, UniProt O75907)
T1 construct: made in house; host or cells: Sf9 insect cells (baculovirus), microsomes
T1 sequence (O75907 1-488): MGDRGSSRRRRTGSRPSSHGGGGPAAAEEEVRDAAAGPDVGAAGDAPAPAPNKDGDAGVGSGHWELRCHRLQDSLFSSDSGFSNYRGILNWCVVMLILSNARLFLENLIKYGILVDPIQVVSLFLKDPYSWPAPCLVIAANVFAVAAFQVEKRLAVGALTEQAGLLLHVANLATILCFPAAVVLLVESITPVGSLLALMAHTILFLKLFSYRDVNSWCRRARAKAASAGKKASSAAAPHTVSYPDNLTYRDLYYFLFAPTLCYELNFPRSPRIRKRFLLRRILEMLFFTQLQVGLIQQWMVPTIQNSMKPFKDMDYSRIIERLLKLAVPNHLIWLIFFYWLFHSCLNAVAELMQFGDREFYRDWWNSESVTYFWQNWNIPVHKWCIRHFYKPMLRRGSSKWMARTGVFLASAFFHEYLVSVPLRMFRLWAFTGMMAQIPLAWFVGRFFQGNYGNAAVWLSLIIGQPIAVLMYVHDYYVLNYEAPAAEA
Assay: human DGAT1 fluorescence (CPM) assay, inhibition of CoA product formation
Assay type: biochemical
Conditions: human DGAT1 fluorescene (CPM) assay; microsomes from Sf9 insect cells; read-out: hDGAT IC50
Method: Human DGAT1 was expressed in Sf9 insect cells using a baculovirus expression system. Microsomes were prepared and used as enzyme for in vitro inhibition testing in either of two formats measuring production of coenzyme A or tridecanoylglycerol product, respectively. All steps were performed at 21-23° C. All data for DGAT1 inhibition by test compounds were collected under conditions where product formation was linear with reaction time.
An equal volume (10 uL) of 3× enzyme in buffer was added and the components incubated for 30 minutes pre-reaction incubation to allow enzyme and test compounds to attain binding equilibrium. […] Some assays were performed with inclusion of didecanoylglycerol in the pre-reaction incubation of test compound and enzyme. DGAT reactions (30 uL) were initiated upon addition of 10 uL of 3× substrate solution. Final reaction conditions consisted of 20 mM HEPES pH 7.5, 2 mM MgCl2, 1 mM CHAPS, 50 uM didecanoylglycerol, 3 uM decanoyl-CoA, 1 ug/mL microsomal protein, and 1% DMSO. Following a 60 minute reaction incubation, reactions were stopped and CoA product derivatized with 30 uL of buffer containing 10 uM {4-[4-(4-amino-7,7-dimethyl-7H-pyrimido[4,5-b][1,4]oxazin-6-yl)phenyl]cyclohexyl}acetic acid and 50 uM 7-diethylamino-3-(4′-maleimidylphenyl)-4-methylcoumarin (CPM). […] IC50s were fitted using GraphPad Prism to a sigmoidal dose response.

IC50 [nM]	Structure (SMILES)
1.2	CCc1ccc(NC(=O)Nc2ccc(-c3ccc4c(c3)CCC(CC(=O)O)(CC(F)(F)F)C4=O)cc2)cc1 (stereo not shown) [Example 225]
6.1	O=C(O)CC1(CC(F)(F)F)CCc2cc(-c3ccc(NC(=O)NC4CCCCC4)cc3)ccc2C1=O (stereo not shown) [Example 226]
5.2	COC1(CC(=O)O)CCc2cc(-c3ccc(NC(=O)Nc4cccc(Cl)c4)cc3)ccc2C1=O (stereo not shown) [Example 229]
27.5	O=C(O)CC1(CC(F)(F)F)CCc2cc(-c3cnc(NC(=O)NC4CCC4)cn3)ccc2C1=O (stereo not shown) [Example 230]
